How the values were obtained:
A549 = test: Soft agar assay, IC50 of single agents in A549; format: cell-based; conditions: Homo sapiens
Description: (§1) Example 5: Determination of Drug Interaction in Cell Lines by Soft Agar Assay
(§2) The combination of BAL101553 with eribulin was tested in various cell lines by soft agar assay. Table 1 and Table 2 present the results according to coefficient of drug interaction based on colony number (Table 1) and total area of colonies (Table 2). In both cases the coefficient of drug interaction is calculated according to the formula described in Zhao et al., J Intercult Ethnopharmacol. 2014, 3(2): 68-72): (combination/untreated)/[(compound1/untreated)×(compound2/untreated)]

HCC1395 = test: Soft agar assay, IC50 of single agents in HCC1395; format: cell-based; conditions: Homo sapiens
Description: as §1, §2

MiaPaCa2 = test: Soft agar assay, IC50 of single agents in MiaPaCa2; format: cell-based; conditions: Homo sapiens, MIA PaCa-2
Description: as §1, §2

HCT116 = test: Soft agar assay, IC50 of single agents in HCT116; format: cell-based; conditions: Homo sapiens, HCT-116
Description: as §1, §2

[1] = tested on: microtubules (soluble vs polymerized tubulin), MDA-MB-231 cells; test: Cellular microtubule destabilization assay and immunoblotting for tubulin; format: cell-based, human; conditions: 2 hours
Description: The following human cell line was used: MDA-MB-231 (ATCC: HTB-26). In addition the following enhanced green fluorescent protein (EGFP)-transfected human cell lines were used: NCI-H460 (ATCC: HTB-177) (H460GFP) and Jurkat (ATCC: TIB-152) (JurkatGFP). NCI-H460 and Jurkat cell lines were cultured in RPMI-1640 tissue culture medium containing 10% (v/v) fetal calf serum, 2 mM glutamine, non-essential amino acids and 50 μg/ml penicillin/streptomycin (Complete medium) (Sigma, Buchs, Switzerland). The MDA-MB-231 cell line was cultured in Dulbecco's Modified Eagle Medium (DMEM) (high glucose) tissue culture medium containing 10% (v/v) fetal calf serum, 1 mM sodium pyruvate and 50 μg/ml penicillin/streptomycin (i.e. Complete Medium) (Sigma, Buchs, Switzerland).
General growth conditions were 37° C. and 7.5% CO2. For the microtubule destabilization assay cell lines were cultured in 5% CO2.
Trypsinized MDA-MB-231 cells (500′000 cells per treatment) were treated in 1 mL medium containing BAL27862 and/or eribulin (Halaven®, Ch.-B. 60363CRN1, Eisai) or appropriate vehicle control (dimethylsulfoxide (DMSO)) for 2 hours in a water bath at 37° C. […]

SMILES	IC50 (A549) [nM]	IC50 (HCC1395) [nM]	IC50 (MiaPaCa2) [nM]	IC50 (HCT116) [nM]	microtubule destabilizing activity (soluble vs particulate tubulin, Western blot) ([1]; single agent 0.2 nM and 2 nM)	microtubule destabilizing activity (soluble vs particulate tubulin, Western blot) ([1]; single agent 20 and 30 nM (FIG. 5A))
C=C1C[C@@H]2CC[C@@]34C[C@H]5O[C@H]6[C@@H](O3)[C@H]3O[C@H](CC[C@@H]3O[C@H]6[C@H]5O4)CC(=O)C[C@@H]3[C@@H](OC)[C@@H](C[C@H](O)CN)O[C@H]3C[C@H]3O[C@@H](CC[C@@H]1O2)C[C@@H](C)C3=C.CS(=O)(=O)O [Eribulin, (2R, 3R, 3aS, 7R, 8aS, 9S, 10aR, 11S, 12R, 13aR, 13bS, 15S, 18S, 21S, 24S, 26R, 28R, 29aS)-2-[(2S)-3-Amino-2-hydroxypropyl]-3-methoxy-26-methyl-20,27-dimethylidenehexacosahydro-11,15:18,21:24,28-triepoxy-7,9-ethano-12,15-methano-9H,15H-furo[3,2-i]furo[2′,3′:5,6]pyrano[4,3-b][1,4]dioxacyclopentacosin-5(4H)-one methanesulfonate (salt)]	0.25	0.5	0.5	1	only a small increase in soluble tubulin	–
N#CCCNc1nonc1-c1nc2ccccc2n1CC(=O)c1ccc(N)cc1 [BAL27862, 3-(4-{1-[2-(4-Amino-phenyl)-2-oxo-ethyl]-1H-benzoimidazol-2-yl}-furazan-3-ylamino)-propionitrile]	25	10	9	18	–	concentration-dependent but incomplete destabilizing effect

Reference: patent US11419856B2, “Pharmaceutical combinations for use in the treatment of neoplastic diseases” (Basilea Pharmaceutica International AG, priority 2017, dated 2022)
